Measurements reported in US20110117169A1, “METHODS AND COMPOSITIONS FOR CAPTURE OF CELLS” (AFFINERGY, INC., priority 2009, published 2011).
Ends that are not written are not given here. spacer = not defined here

Experiments:
[1] = tested on: hMSCs; test: Binding of peptide-modified collagen to hMSCs, FACS with Neutravidin-PE; design: species or system human; conditions: 20,000 hMSCs, 1 hr on ice, serial dilution from 25 μM
Experimental: In a separate experiment, cell binding peptide SEQ ID NO: 4 was covalently attached to collagen as described herein and tested for its ability to bind hMSCs using an experimental setup similar to that described above. Briefly, collagen with covalently attached SEQ ID NO: 4 peptide was serial diluted (starting from 25 μM) and mixed with 20,000 hMSCs in 2% FBS/PBS. After 1 hr incubation on ice, cells were washed twice with 2% FBS/PBS and cells bound to the collagen with covalently attached SEQ ID NO: 4 peptide were detected with Neutravidin-PE. Cells were washed, transferred into 96-well plates for FACS analysis.

[2] = tested on: hMSCs; test: Adherence of hMSCs to polypropylene in presence of peptide-modified collagen; assay type: cell-based, human; conditions: after binding in presence of the collagen
[3] = tested on: HUVECs; test: HUVEC capture and retention on plates coated with peptide-modified collagen ([…]-GLO); assay type: cell-based, human
Experimental: After washing, 10,000 HUVECs were added per well in serum free medium for 30 min at 37° C. The plates were washed 3 times with PBS containing 2% FBS, and captured cells were detected with […]-GLO (INVITROGEN) using a luminometer and a standard curve. […] For FIG. 21B, the collagen was extracted in gel loading buffer, separated by PAGE, and total protein was stained with SIMPLYBLUE (INVITROGEN). […] Plates with captured HUVECs were prepared as described in FIG. 20A. […]

[4] = tested on: ECFCs; test: Capture of ECFCs in flow on coated coverslips (parallel plate flow chamber); assay type: cell-based, human; conditions: 2×10^6 ECFC circulated 2 h at 37° C.
Experimental: The ability of the collagen modified with endothelial cell binding peptide SEQ ID NO: 4 to capture ECFCs in flow was analyzed as follows. Glass coverslips were coated with unmodified collagen or cell binding peptide modified-collagen and mounted in a polycarbonate parallel plate flow chamber. PBS/10% FBS was circulated through a closed 150 ml system to block the coverslips. Approximately 2×10^6 ECFC were injected into the system and were circulated for 2 h at 37° C. Coverslips were washed in PBS to remove loosely adhering cells, the remaining cells on the coverslips were lysed in CELLTITERGLO (INVITROGEN, CA), and the cells enumerated by luminescence against a standard curve.

[5] = tested on: HUVECs; test: Retention of HUVECs under shear stress on coated coverslips; assay type: cell-based, human
Experimental: The ability of the collagen modified with endothelial cell binding peptide SEQ ID NO: 4 to retain HUVECs under shear stress was analyzed as follows. Glass cover-slips were coated with peptide conjugated collagen or unmodified collagen and seeded with HUVECs. Coverslips were secured in a polycarbonate slide with six 1 cm diameter wells enabling simultaneous testing of materials. A closed loop peristaltic pump was used to expose the samples to flow conditions for 30 minutes at laminar flow rates up to 12 dynes/cm^2 in PBS containing 2% FBS. The number of cells retained on the cover slip was determined using […]-GLO (INVITORGEN) and a luminometer.

[6] = tested on: human dermal fibroblasts; test: Fibroblast binding to peptide-modified collagen coated plates; assay type: cell-based; conditions: for fibroblast binding compared to unmodified collagen: higher concentrations / FIG. 28 summary
Experimental: The experiment was performed according to the following procedure. Cell-binding peptide (SEQ ID NO: 4) was covalently attached to soluble collagen as described herein at Example 7. 96-well plates were coated with various amounts of unmodified or the peptide-modified collagen (177 μmol peptide/g collagen) over night at 4° C. Unbound collagen was removed and the plates were blocked for 1 h. After washing, 5,000 human dermal fibroblasts were added per well in serum-free medium for 30 min at 37° C. The plates were washed, and bound cells were detected with […]-GLO (PROMEGA) using a luminometer. At 0.0025 μg collagen, fibroblast binding was increased 11-fold for the peptide-modified collagen compared to unmodified collagen (see FIG. 28).

[7] = tested on: hMSCs; test: hMSC attachment to PEEK discs in collagen solution ([…]-GLO); assay type: cell-based, human; conditions: 2 h at 37° C., highest concentration of collagen
Experimental: To test whether collagen having a covalently attached cell binding peptide could increase cell adhesion to PEEK discs, PEEK discs were coated with collagen and hMSC attachment was measured. Industrial-grade PEEK discs were obtained from […] POLYMERS, Inc Houston, Tex. The discs were machined with a steel punch for a 0.5 cm diameter (thickness of 0.125). Discs (n=2 per group) were coated by two methods. In the first method, the discs were incubated overnight with varying concentrations of cell binding peptide SEQ ID NO: 4-modified collagen (88.5 μmol peptide/g of collagen). The discs were washed to remove unattached peptide and collagen, and the attached biotinylated peptide was detected with Neutravidin-HRP in an ELISA assay. […] In the second method, uncoated PEEK discs were placed in a solution of unmodified or peptide-modified collagen and hMSCs. After 2 h at 37° C., discs were moved to a new plate and washed with PBS to remove unbound cells. The number of attached cells was counted by […]-GLO. […] On the other hand, peptide-conjugated collagen increased cell attachment relative to both uncoated and collagen-coated PEEK. At the highest concentration of peptide-modified collagen, 26% of the cells were attached, whereas only 9% of cells attached to the uncoated discs and 11% to the discs coated with unmodified collagen.

Substance: peptide-modified collagen: SEQ ID NO: 4 with spacer and lysine covalently attached to soluble bovine type I collagen via BS^3 crosslinking reagent (SSFWDVCQGDGTCYGGGSR-{spacer-Lys}; cysteine pairing not given here; reading uncertain; also: covalently attached to soluble bovine type I collagen via BS3 crosslinker, spacer not given here)
- increase in fluorescence signal compared to control [1]: ~100 fold
- hMSCs retained on the walls of polypropylene plates [2]: ~80%
- HUVECs retained compared to unmodified collagen after agitation ([3]; 1 hour with agitation in PBS containing 2% FBS): 7 fold
- increase in HUVEC retention over unmodified collagen ([3]; 10,000 HUVECs per well, serum free medium, 30 min at 37° C.): 3 fold
- ECFCs captured in flow compared to unmodified collagen [4]: about 20 fold
- effect of shear stress on cell capture ([5]; 30 minutes, laminar flow up to 12 dynes/cm^2): did not significantly affect cell capture
- HUVECs captured compared to unmodified collagen ([5]; coated glass cover-slips, PBS containing 2% FBS): about 3 fold
- increase in fibroblast binding compared to unmodified collagen ([6]; 0.0025 μg collagen, 5,000 fibroblasts per well, 30 min at 37° C.): 11 fold
- fibroblast binding compared to unmodified collagen ([6]; listed as SEQ ID NO: 4 peptide-modified collagen): Increased cell binding
- fibroblast binding compared to unmodified collagen ([6]; listed as cell binding peptide (SEQ ID NO: 4)-modified collagen): enhanced binding
- cells attached to PEEK discs [7]: 26%
